The source of these data is patent publication US20220009914A1, “Analogs of Nitrofuran Antibiotics to Combat Resistance” (The Trustees of Indiana University, priority 2020, published 2022).

pEC50, pIC50: −log10 of the molar value. Like-named read-outs stand apart in the source and are kept apart here.

Assay [1] has as its system NEB 5-alpha Escherichia coli. In words: bacterial proliferation assay, E. coli. The assay is classed as cell-based. Conditions: for pEC50: read-out: Bacterial Proliferation EC50 E. coli. How it is done: (§1) All compounds were evaluated for inhibiting the proliferation of E. coli and each of the ESKAPE bacteria. Results presented represent the averages of EC50 values obtained from at least four replicates. Evaluating compounds for inhibition of bacterial cell proliferation.
(§2) Growth Media: E. coli were grown with LB medium and all ESKAPE bacteria were grown in Brain Heart Infusion (BHI) medium (Becton, Dickinson and Company), with all liquid cultures supplemented with 25 mg/L Ca^2+ and 12.5 mg/L Mg^2+ to mimic physiological free concentrations of these cations. A 10 mg/mL Ca^2+ stock solution was prepared by dissolving 1.84 g of CaCl2.2H2O in 50 mL of deionized water, and a 10 mg/mL Mg^2+ stock solution was prepared by dissolving 4.18 g of MgCl2.6H2O in 50 mL deionized water—filter sterilized using 0.2 μm cellulose-acetate filters. 2.5 mL of the sterile 10 mg/mL Ca^2+ stock and 1.25 mL of the sterile 10 mg/mL Mg^2+ stock solutions were added per 1 L of autoclaved LB or BHI media to obtain 25 mg/L Ca^2+ and 12.5 mg/L Mg^2+ ions, respectively.
(§3) General Assay Protocol: Stock bacterial cultures were streaked onto LB or BHI agar plates and grown overnight at 37° C. Fresh aliquots of cation supplemented media were inoculated with single bacterial colonies and the cultures were grown overnight at 37° C. with shaking (240 rpm). The following morning, cultures were diluted 10-fold into fresh media and grown at 37° C. until bacteria had reached mid-log phase growth (OD600˜0.4-0.6). The cultures were then diluted into fresh media to achieve final OD600 readings of 0.017. Aliquots of these diluted cultures (30 μL) were added to clear, flat-bottom 384-well polystyrene plates that were previously stamped with 0.5 μL of test compounds in 20 μL of media (yielding initial OD600=0.01 bacterial cultures). All compounds were tested in dose-response with concentration ranges during the proliferation assays from 100 μM to 46 nM (3-fold dilution series). A second set of baseline control plates were prepared analogously, but without any bacteria added, to correct for possible compound absorbance and/or precipitation. […] Plates were then read at 600 nm using a Molecular Devices SpectraMax Plus384 microplate reader. […] Results presented represent the averages of EC50 values obtained from at least four replicates.
(§4) Evaluating analogs for inhibiting the growth of E. coli and the ESKAPE bacteria. Analogs were initially tested for antibacterial efficacy against representative strains of antibiotic-sensitive E. coli and the ESKAPE bacteria. To determine compound efficacy, bacterial proliferation assays were carried out in liquid media culture supplemented with physiological concentrations of free calcium and magnesium cations. For these assays, bacterial cultures (OD600=0.01) were exposed to test compounds in 8-point, 3-fold dilution series (100 μM to 46 nM concentration range), in 384-well plates. After addition of compounds to cultures, the plates were sealed with Breathe-Easy gas permeable membranes and allowed to grow to mid-log phase (OD600˜0.4-0.6), whereupon final OD600 readings were taken to assess for bacterial growth and inhibition.

For assay [2], the system named is Enterobacter cloacae strain CDC 442-68 (ATCC #13047). In words: bacterial proliferation assay, E. cloacae. The assay is classed as cell-based. Conditions: ATCC13047, read-out: Bacterial Proliferation EC50 E. cloacae. How it is done: as §1, §2, §3, §4
The target in assay [3] is T1, native MDH (Sus scrofa, UniProt P00346).
T1 sequence (P00346 25-338): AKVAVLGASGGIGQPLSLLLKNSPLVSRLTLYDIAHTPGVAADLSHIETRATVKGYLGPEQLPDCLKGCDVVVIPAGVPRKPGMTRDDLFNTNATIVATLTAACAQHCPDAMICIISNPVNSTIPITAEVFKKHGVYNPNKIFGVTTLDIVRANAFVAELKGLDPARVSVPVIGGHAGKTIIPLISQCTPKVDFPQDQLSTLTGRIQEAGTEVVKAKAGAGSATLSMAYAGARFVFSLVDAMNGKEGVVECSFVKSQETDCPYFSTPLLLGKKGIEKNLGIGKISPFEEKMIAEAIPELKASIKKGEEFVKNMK
In words: native MDH activity counter-screen in the presence of E. coli NfsB nitroreductase. The assay is classed as biochemical, pig. The method, then: Evaluating compounds for inhibition in the GroEL/ES-mediated dMDH refolding assay and native MDH activity counter-screen in the presence of E. coli NfsB nitroreductase. These assays were performed nearly identically to those mentioned above, but with a couple distinct modifications. […] The remainder of the assay was conducted as in our standard protocol where no NfsB nitroreductase was present. […] Results presented represent the averages of IC50 values obtained from at least four replicates in each assay.

Setting [4] is: with E. coli NfsB nitroreductase, read-out: Native MDH Activity w/NfsB IC50.

Regarding `CN(C)c1ccc(C(=O)N/N=C/c2ccc(O)c3ncccc23)cc1` [Compound 8, 4-(dimethylamino)-N′-((8-hydroxyquinolin-5-yl)methylene)benzohydrazide], the pEC50 is 4.03 in assay [1] (Escherichia coli) and under 4.00 in assay [2]. Also, in assay [3] (setting [4]), the pIC50 was under 4.25.

Turning to `O=C(N/N=C/c1ccc([N+](=O)[O-])o1)c1ccc(NS(=O)(=O)c2ccc(Br)cc2)cc1` [Compound 27, 4-bromo-N-(4-(2-((5-nitrofuran-2-yl)methylene)hydrazine-1-carbonyl)phenyl)benzenesulfonamide], the pEC50 in assay [1] (Escherichia coli) and in assay [2] was under 4.00 throughout. The pIC50 in assay [3] is under 4.25.

On to `O=C(N/N=C/c1ccc(O)c2ncccc12)c1cccc(Oc2ccccc2)c1` [Compound 11, N′-((8-hydroxyquinolin-5-yl)methylene)-3-phenoxybenzohydrazide], for which the pEC50 in assay [1] (Escherichia coli) and in assay [2] was under 4.00 throughout. Besides, in assay [3] (setting [4]), the pIC50 is under 4.25.

Consider `O=C(N/N=C/c1ccc([N+](=O)[O-])o1)c1ccccc1Oc1ccccc1` [Compound 23, N′-((5-nitrofuran-2-yl)methylene)-2-phenoxybenzohydrazide], for which the pEC50 in assay [1] (Escherichia coli) and in assay [2] was under 4.00 each time. In addition, the pIC50 in assay [3] (setting [4]) was under 4.25.

As for `O=[N+]([O-])c1ccc(O)c2ncccc12` [Nitroxoline, reference compound], the pEC50 was 5.40 in assay [1] (Escherichia coli) and 5.18 in assay [2]. Also, the pIC50 in assay [3] (setting [4]) is under 4.25.

As to `COc1ccc(C(=O)N/N=C/c2ccc(O)cc2)cc1` [Compound 35, N′-(4-hydroxybenzylidene)-4-methoxybenzohydrazide], the pEC50 in assay [1] (Escherichia coli) and in assay [2] was under 4.00 throughout. Further, the pIC50 in assay [3] (setting [4]) is under 4.25.

For `O=C(N/N=C/c1ccc(O)c2ncccc12)c1cccs1` [Compound 3, N′-((8-hydroxyquinolin-5-yl)methylene)thiophene-2-carbohydrazide], the results for the pEC50 in assay [1] (Escherichia coli) and in assay [2] were 4.11 and 4.04, respectively. Also, in assay [3] (setting [4]), the pIC50 is under 4.25.

Consider `O=C(N/N=C/c1ccc([N+](=O)[O-])o1)c1ccncc1` [Compound 19, N′-((5-nitrofuran-2-yl)methylene)isonicotinohydrazide], for which the pEC50 is 5.62 in assay [1] (Escherichia coli) and 4.14 in assay [2].

Turning to `O=C(N/N=C/c1ccccc1)c1ccccc1` [Compound 38, N′-benzylidenebenzohydrazide], the pEC50 in assay [1] (Escherichia coli) and in assay [2] was under 4.00 in each case. The pIC50 in assay [3] (setting [4]) is under 4.25.

As for `O=C(N/N=C/c1ccc(O)c2ncccc12)c1ccc(NS(=O)(=O)c2cccs2)cc1` [Compound 13, N-(4-(2-((8-hydroxyquinolin-5-yl)methylene)hydrazine-1-carbonyl)phenyl)thiophene-2-sulfonamide], the pEC50 in assay [1] (Escherichia coli) and in assay [2] was under 4.00 throughout. In assay [3] (setting [4]), the pIC50 is under 4.25.

For `COc1ccc(C(=O)NN)cc1` [Compound 42, reference compound], the pEC50 in assay [1] (Escherichia coli) and in assay [2] was under 4.00 each time. Moreover, the pIC50 in assay [3] (setting [4]) is under 4.25.

For the compound `O=C(N/N=C/c1ccc(O)c2ncccc12)c1ccncc1` [Compound 6, N′-((8-hydroxyquinolin-5-yl)methylene)isonicotinohydrazide], the pEC50 was 4.10 in assay [1] (Escherichia coli) and under 4.00 in assay [2]. Further, in assay [3] (setting [4]), the pIC50 is under 4.25.

`O=C(N/N=C/c1ccc(O)c2ncccc12)c1ccccc1Oc1ccccc1` [Compound 10, N′-((8-hydroxyquinolin-5-yl)methylene)-2-phenoxybenzohydrazide]: the pEC50 in assay [1] (Escherichia coli) and in assay [2] was under 4.00 throughout. For the same compound, the pIC50 in assay [3] (setting [4]) is under 4.25.

For `O=C(N/N=C/c1ccc([N+](=O)[O-])o1)c1ccc(NS(=O)(=O)c2cccs2)cc1` [Compound 26, N-(4-(2-((5-nitrofuran-2-yl)methylene)hydrazine-1-carbonyl)phenyl)thiophene-2-sulfonamide], the figures for the pEC50 in assay [1] (Escherichia coli) and in assay [2] were 4.77 and under 4.00, respectively. Also, the pIC50 in assay [3] (setting [4]) is under 4.25.

As to `O=C(N/N=C/c1ccc(O)c2ccccc12)c1ccccc1` [Compound 30, N′-((4-hydroxynaphthalen-1-yl)methylene)benzohydrazide], the pEC50 in assay [1] (Escherichia coli) and in assay [2] was under 4.00 throughout. Besides, in assay [3] (setting [4]), the pIC50 was under 4.25.

With `O=C(N/N=C/c1ccc([N+](=O)[O-])o1)c1cccc(Oc2ccccc2)c1` [Compound 24, N′-((5-nitrofuran-2-yl)methylene)-3-phenoxybenzohydrazide], the pEC50 in assay [1] (Escherichia coli) and in assay [2] was under 4.00 throughout. Also, in assay [3] (setting [4]), the pIC50 was under 4.25.

`COc1ccc(C(=O)N/N=C/c2ccc(O)c3ccccc23)cc1` [Compound 29, N′-((4-hydroxynaphthalen-1-yl)methylene)-4-methoxybenzohydrazide]: the pEC50 in assay [1] (Escherichia coli) and in assay [2] was under 4.00 each time. Further, the pIC50 in assay [3] (setting [4]) is under 4.25.

On to `O=C(N/N=C/c1ccc(O)cc1)c1ccccc1` [Compound 36, N′-(4-hydroxybenzylidene)benzohydrazide], for which the pEC50 in assay [1] (Escherichia coli) and in assay [2] was under 4.00 in each case. The pIC50 in assay [3] (setting [4]) is under 4.25.

On to `O=Cc1ccc(O)c2ncccc12` [Compound 40, reference compound], for which the pEC50 in assay [1] (Escherichia coli) is 4.85; in assay [2] it was 4.62. Also, the pIC50 in assay [3] (setting [4]) was under 4.25.

For the compound `O=C(N/N=C/c1ccc([N+](=O)[O-])o1)c1cccc2ccccc12` [Compound 22, N′-((5-nitrofuran-2-yl)methylene)-1-naphthohydrazide], the pEC50 in assay [1] (Escherichia coli) was 4.39; in assay [2], under 4.00. The pIC50 in assay [3] (setting [4]) is under 4.25.

`O=C(N/N=C/c1ccc([N+](=O)[O-])o1)c1cccs1` [Compound 16, N′-((5-nitrofuran-2-yl)methylene)thiophene-2-carbohydrazide]: the pEC50 was 6.38 in assay [1] and 4.40 in assay [2].

On to `O=C(N/N=C/c1ccc([N+](=O)[O-])o1)c1ccc(Cl)s1` [Compound 17, 5-chloro-N′-((5-nitrofuran-2-yl)methylene)thiophene-2-carbohydrazide], for which, in assay [1], the “inhibition of E. coli proliferation in words” value was “potent inhibitors” and the pEC50 is 6.35. The pEC50 in assay [2] is 4.31.

For the compound `O=C(N/N=C/c1ccc([N+](=O)[O-])o1)c1ccccc1` [Compound 18, N′-((5-nitrofuran-2-yl)methylene)benzohydrazide], the pEC50 in assay [1] (Escherichia coli) is 5.68; in assay [2] it was under 4.00.

Consider `COc1ccc(C(=O)N/N=C/c2ccc([N+](=O)[O-])o2)cc1` [Compound 20, 4-methoxy-N′-((5-nitrofuran-2-yl)methylene)benzohydrazide], for which the pEC50 is 5.72 in assay [1] (Escherichia coli) and under 4.00 in assay [2].

`O=C1CN(/N=C/c2ccc([N+](=O)[O-])o2)C(=O)N1` [Nitrofurantoin, reference compound]: the “inhibition of E. coli proliferation in words” value in assay [1] is on record as “potent inhibitors”. Moreover, the pEC50 is 6.16 in assay [1] (Escherichia coli) and 4.44 in assay [2].

Consider `CN(C)c1ccc(C(=O)N/N=C/c2ccc([N+](=O)[O-])o2)cc1` [Compound 21, 4-(dimethylamino)-N′-((5-nitrofuran-2-yl)methylene)benzohydrazide], for which the results for the pEC50 in assay [1] (Escherichia coli) and in assay [2] were 5.00 and under 4.00, respectively.
